Results reported in US20040024024A1, “Aromatic sulfone hydroxamates and their use as protease inhibitors” (priority 2001, published 2004).
Structures can show the parent of a compound that is named as a salt.

How the values were obtained:
Test in all cases: In vitro MMP inhibition, IC50 determination (fluorogenic substrate I)
Type in all cases: biochemical
Human recombinant MMP-14 = target: T1, Human recombinant MMP-14 (Homo sapiens, UniProt P50281)
T1 construct: The catalytic domain enzyme was expressed in E. coli inclusion bodies, solubilized in urea; made in house
Procedure, shortened: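 Catalytic-domain MMP-14, expressed in E. coli and refolded, activated with APMA or trypsin; compounds incubated at room temperature with 4 μM fluorogenic substrate I (MCA-PLGL-Dpa-AR-NH2) in Tris/NaCl/CaCl2 buffer, pH 7.5. Fluorescence at ex 328/em 415 nm; IC50 from loss of fluorescence versus inhibitor concentration.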

Human recombinant MMP-1 = target: T2, Human recombinant MMP-1 (Homo sapiens, UniProt P03956)
T2 construct: made in house; host or cells: MMP-1-transfected HT-1080 cells (spent media)
T2 sequence (P03956 100-469): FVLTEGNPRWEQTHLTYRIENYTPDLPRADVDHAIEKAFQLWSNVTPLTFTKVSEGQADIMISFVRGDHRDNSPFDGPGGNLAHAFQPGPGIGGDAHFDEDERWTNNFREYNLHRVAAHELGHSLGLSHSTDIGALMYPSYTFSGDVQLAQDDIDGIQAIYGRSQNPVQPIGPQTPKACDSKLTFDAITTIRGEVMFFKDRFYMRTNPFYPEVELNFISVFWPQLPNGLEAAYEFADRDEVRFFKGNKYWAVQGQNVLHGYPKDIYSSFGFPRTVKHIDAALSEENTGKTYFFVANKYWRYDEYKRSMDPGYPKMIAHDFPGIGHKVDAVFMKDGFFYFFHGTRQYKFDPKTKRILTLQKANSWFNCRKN
Procedure, shortened: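 APMA- or trypsin-activated enzyme, purified from spent media of transfected HT-1080 cells, incubated at room temperature with 4 μM MCA-Pro-Leu-Gly-Leu-Dpa-Ala-Arg-NH2 and graded inhibitor in Tris buffer pH 7.5 (10 mM CaCl2, 0.05% Brij). Cleavage read by fluorescence (ex 328/em 415 nm); IC50 from fluorescence reduction versus inhibitor concentration.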

Human recombinant MMP-9 = target: T3, Human recombinant MMP-9 (Homo sapiens, UniProt P14780)
T3 construct: made in house; host or cells: MMP-9-transfected HT1080 cells (spent media)
Procedure, shortened: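 MMP-9 proenzyme purified from transfected HT1080 cell media, activated with APMA or trypsin. Compound dilutions in pH 7.5 Tris/NaCl/CaCl2 buffer with 0.05% polyoxyethylene 23 lauryl ether, incubated at room temperature with 4 μM MCA/Dpa substrate I. IC50 from fluorescence loss (ex 328, em 415 nm) versus inhibitor concentration.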

Human recombinant MMP-13 = target: T4, Human recombinant MMP-13 (Homo sapiens, UniProt P45452)
T4 construct: made in house; host or cells: baculovirus / insect cells
Procedure, shortened: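 Fluorescence at 415 nm (excitation 328 nm) reports Gly-Leu cleavage of 4 μM quenched methoxycoumarin peptide substrate I. Human recombinant MMP-13, activated by trypsin or APMA, was incubated at room temperature with varied inhibitor concentrations in pH 7.5 Tris/NaCl/CaCl2 buffer; IC50 derived from reduced fluorescence.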

Human recombinant MMP-2 = target: T5, Human recombinant MMP-2 (Homo sapiens, UniProt P08253)
T5 construct: made in house; host or cells: MMP-2-transfected p2AHT2 cells
T5 sequence (P08253 110-660): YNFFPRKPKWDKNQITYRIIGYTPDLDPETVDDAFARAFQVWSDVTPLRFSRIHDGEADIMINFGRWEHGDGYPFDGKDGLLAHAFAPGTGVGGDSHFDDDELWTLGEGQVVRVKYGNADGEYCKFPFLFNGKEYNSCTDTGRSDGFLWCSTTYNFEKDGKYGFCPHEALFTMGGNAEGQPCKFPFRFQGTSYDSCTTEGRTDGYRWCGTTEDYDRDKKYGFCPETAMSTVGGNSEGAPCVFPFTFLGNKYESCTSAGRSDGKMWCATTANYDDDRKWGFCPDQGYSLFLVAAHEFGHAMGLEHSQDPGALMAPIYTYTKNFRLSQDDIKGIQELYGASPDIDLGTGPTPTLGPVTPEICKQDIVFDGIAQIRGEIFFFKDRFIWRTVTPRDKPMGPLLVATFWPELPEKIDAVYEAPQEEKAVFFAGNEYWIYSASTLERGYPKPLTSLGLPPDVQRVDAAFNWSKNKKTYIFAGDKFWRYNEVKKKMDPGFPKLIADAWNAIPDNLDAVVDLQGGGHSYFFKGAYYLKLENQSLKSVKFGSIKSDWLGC
Procedure, shortened: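 APMA- or trypsin-activated recombinant MMP-2 was incubated at room temperature with serial inhibitor dilutions in Tris buffer pH 7.5 (100 mM NaCl, 10 mM CaCl2, 0.05% Brij), with DMSO from 1% stocks, and 4 μM substrate I. Cleavage was read by fluorescence at 328/415 nm; IC50 was taken from the loss of fluorescence versus inhibitor concentration.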

[1] = value outside parentheses (Ki in parenthesis)
[2] = substrate (I) 4 μM, room temperature, values not in parenthesis

T3 sequence (P14780 107-707 limits assumed): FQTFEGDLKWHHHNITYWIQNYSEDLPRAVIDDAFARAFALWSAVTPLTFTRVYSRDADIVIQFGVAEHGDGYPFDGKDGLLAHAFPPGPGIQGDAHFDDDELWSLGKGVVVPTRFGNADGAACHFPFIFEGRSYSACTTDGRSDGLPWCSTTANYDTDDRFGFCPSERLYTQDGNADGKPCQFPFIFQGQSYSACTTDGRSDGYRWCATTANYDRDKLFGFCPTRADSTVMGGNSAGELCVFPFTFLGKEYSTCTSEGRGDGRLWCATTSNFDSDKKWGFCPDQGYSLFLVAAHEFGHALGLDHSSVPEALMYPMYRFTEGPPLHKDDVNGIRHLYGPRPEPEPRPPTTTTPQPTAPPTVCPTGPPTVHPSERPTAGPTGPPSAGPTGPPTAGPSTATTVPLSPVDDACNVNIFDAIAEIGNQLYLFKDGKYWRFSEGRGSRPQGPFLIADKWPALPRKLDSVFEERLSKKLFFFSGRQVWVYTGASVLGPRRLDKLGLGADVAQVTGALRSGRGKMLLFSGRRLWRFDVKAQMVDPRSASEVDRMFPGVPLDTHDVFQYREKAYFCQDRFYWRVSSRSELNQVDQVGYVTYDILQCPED

IC50 (Human recombinant MMP-14; value outside parenthesis) [nM]	IC50 (Human recombinant MMP-1; value outside parenthesis) [nM]	IC50 (Human recombinant MMP-9; value outside parenthesis) [nM]	IC50 (Human recombinant MMP-13; value outside parenthesis) [nM]	IC50 (Human recombinant MMP-2; value outside parenthesis) [nM]	IC50 (Human recombinant MMP-14; [1]) [nM]	IC50 (Human recombinant MMP-1; [1]) [nM]	IC50 (Human recombinant MMP-9; [1]) [nM]	IC50 (Human recombinant MMP-13; [1]) [nM]	IC50 (Human recombinant MMP-2; [1]) [nM]	Structure (SMILES)	further results
> 10000	> 10000	> 10000	10.1	2720	–	–	–	–	–	CN(CCCOc1ccc(S(=O)(=O)C2(C(=O)NO)CCOCC2)cc1)C(=O)c1ccc2ccccc2c1 [Example 289]	–
–	–	–	–	–	> 10000	4340	> 10000	3.3	253	O=C(NCCCOc1ccc(S(=O)(=O)C2(C(=O)NO)CCOCC2)cc1)c1cccnc1 [Example 385]	–
> 10000	> 10000	1190	1.2	78.7	–	–	–	–	–	Cc1cccc(-c2noc(CCCOc3ccc(S(=O)(=O)C4(C(=O)NO)CCOCC4)cc3)n2)c1 [Example 238]	–
> 10000	> 10000	2750	1.8	898	–	–	–	–	–	O=C(NO)C1(S(=O)(=O)c2ccc(OCCCc3cccc(-c4ccccc4)c3)cc2)CCOCC1 [Example 269]	–
–	–	–	–	–	> 10000	> 10000	2630	0.8	176	O=C(NCCCOc1ccc(S(=O)(=O)C2(C(=O)NO)CCOCC2)cc1)c1cnc(Cl)c(Cl)c1 [Example 384]	–
–	–	–	–	–	–	–	–	–	–	O=C(NCCSc1ccc(S(=O)(=O)C2(C(=O)NO)CCOCC2)cc1)c1nc2ccccc2o1 [Example 576]	IC50 (Human recombinant MMP-14; value outside parentheses): > 10000 nM; IC50 (Human recombinant MMP-1; value outside parentheses): > 10000 nM; IC50 (Human recombinant MMP-9; value outside parentheses): 397 nM; IC50 (Human recombinant MMP-13; value outside parentheses): 0.3 nM; IC50 (Human recombinant MMP-2; value outside parentheses): 233 nM
> 10000	7260	1880	0.7	201	–	–	–	–	–	Cc1ccc(-c2nnc(CCCOc3ccc(S(=O)(=O)C4(C(=O)NO)CCOCC4)cc3)o2)cc1 [Example 259]	–
> 10000	> 10000	41.5	0.2	3.5	–	–	–	–	–	COc1ccc(C(=O)CCCCOc2ccc(S(=O)(=O)C3(C(=O)NO)CCN(C4CC4)CC3)cc2)cc1 [Example 277]	–
–	–	–	–	–	–	–	–	–	–	O=C1c2ccccc2CN1CCCOc1ccc(S(=O)(=O)C2(C(=O)NO)CCOCC2)cc1 [Example 22, 4-[[4-[3-(1,3-dihydro-1-oxo-2H-isoindol-2-yl)propoxy]phenyl]sulfonyl]tetrahydro-N-hydroxy-2H-pyran-4-carboxamide]	IC50 (Human recombinant MMP-14; [2]): > 10000 nM; IC50 (Human recombinant MMP-1; [2]): > 10000 nM; IC50 (Human recombinant MMP-9; [2]): > 10000 nM; IC50 (Human recombinant MMP-13; [2]): 4.9 nM; IC50 (Human recombinant MMP-2; [2]): 1000 nM
> 10000	> 10000	1470	5.7	410	–	–	–	–	–	COc1ccccc1-c1nnc(CCCOc2ccc(S(=O)(=O)C3(C(=O)NO)CCOCC3)cc2)o1 [Example 220]	–
–	–	–	–	–	94.9	2730	2.9	0.1	0.2	O=C(CCCOc1ccc(S(=O)(=O)C2(C(=O)NO)CCOCC2)cc1)Cc1ccc(Cl)cc1 [Example 302]	–
–	–	–	–	–	> 10000	> 10000	1560	1.8	135	C[C@H]1[C@@H](c2ccccc2)OC(=O)N1CCCOc1ccc(S(=O)(=O)C2(C(=O)NO)CCOCC2)cc1 [Example 309]	–
–	–	–	–	–	–	–	–	–	–	O=C(NO)C1(S(=O)(=O)c2ccc(OCCCn3nnc(-c4ccc(OC(F)(F)F)cc4)n3)cc2)CCOCC1 [Example 656]	IC50 (Human recombinant MMP-14; value outside parentheses): > 10000 nM; IC50 (Human recombinant MMP-1; value outside parentheses): > 10000 nM; IC50 (Human recombinant MMP-9; value outside parentheses): 1180 nM; IC50 (Human recombinant MMP-13; value outside parentheses): 0.66 nM; IC50 (Human recombinant MMP-2; value outside parentheses): 408 nM
2740	4380	45.8	7.5	20.6	–	–	–	–	–	O=C1N(CCCOc2ccc(S(=O)(=O)C3(C(=O)NO)CCOCC3)cc2)CCN1c1ccc(F)cc1 [Example 195]	–
–	–	–	–	–	592	> 10000	216	16	262	CCOc1ccc2nc(SCCOc3ccc(S(=O)(=O)C4(C(=O)NO)CCOCC4)cc3)sc2c1 [Example 330]	–
–	–	–	–	–	–	–	–	–	–	O=C(OCCCCOc1ccc(S(=O)(=O)C2(C(=O)NO)CCOCC2)cc1)N1CCc2ccccc2C1 [Example 34]	IC50 (Human recombinant MMP-14; [2]): > 10000 nM; IC50 (Human recombinant MMP-1; [2]): 429 nM; IC50 (Human recombinant MMP-9; [2]): > 10000 nM; IC50 (Human recombinant MMP-13; [2]): 3 nM; IC50 (Human recombinant MMP-2; [2]): 36.6 nM
–	–	–	–	–	–	–	–	–	–	COCCN1CCC(C(=O)NO)(S(=O)(=O)c2ccc(OCCCc3cccc(-c4ccccc4)c3)cc2)CC1 [Example 44]	IC50 (Human recombinant MMP-14; [2]): 4980 nM; IC50 (Human recombinant MMP-1; [2]): > 10000 nM; IC50 (Human recombinant MMP-9; [2]): 154 nM; IC50 (Human recombinant MMP-13; [2]): 1.4 nM; IC50 (Human recombinant MMP-2; [2]): 133 nM
> 10000	> 10000	704	2.6	43.3	–	–	–	–	–	COc1ccc2sc(SCCOc3ccc(S(=O)(=O)C4(C(=O)NO)CCOCC4)cc3)nc2c1 [Example 282]	–
–	–	–	–	–	–	–	–	–	–	COc1ccc(C(=O)NCCCOc2ccc(S(=O)(=O)C3(C(=O)NO)CCN(C4CC4)CC3)cc2)cc1 [Example 18, 1-cyclopropyl-N-hydroxy-4-[[4-[3[(4-methoxybenzoyl)amino]propoxy]phenyl]sulfonyl]-4-piperidinecarboxamide, Monohydrochloride]	IC50 (Human recombinant MMP-14; [2]): > 10000 nM; IC50 (Human recombinant MMP-1; [2]): > 10000 nM; IC50 (Human recombinant MMP-9; [2]): 6000 nM; IC50 (Human recombinant MMP-13; [2]): 1.8 nM; IC50 (Human recombinant MMP-2; [2]): 537 nM
–	–	–	–	–	> 10000	2460	132	2.6	3.6	O=C(NO)C1(S(=O)(=O)c2ccc(OCCCS(=O)(=O)N3CCc4ccccc4C3)cc2)CCOCC1 [Example 332]	–
–	–	–	–	–	> 10000	> 10000	9000	0.8	150	COC(=O)c1ccc(C(=O)NCCCOc2ccc(S(=O)(=O)C3(C(=O)NO)CCOCC3)cc2)cc1 [Example 368]	–
–	–	–	–	–	600	> 10000	45	5	5	COC(C)(C)CCOc1ccc(S(=O)(=O)C2(C(=O)NO)CCOCC2)cc1 [Example 473]	–
–	–	–	–	–	–	–	–	–	–	COc1ccc(/C(C#N)=C/CCCOc2ccc(S(=O)(=O)C3(C(=O)NO)CCOCC3)cc2)cc1 [Example 27, 4-[[4-[[(4Z)-5-cyano-5-(4-methoxyphenyl)-4-pentenyl]oxy]phenyl]sulfonyl]tetrahydro-N-hydroxy-2H-pyran-4-carboxamide]	IC50 (Human recombinant MMP-14; [2]): > 10000 nM; IC50 (Human recombinant MMP-1; [2]): > 10000 nM; IC50 (Human recombinant MMP-9; [2]): 9370 nM; IC50 (Human recombinant MMP-13; [2]): 0.2 nM; IC50 (Human recombinant MMP-2; [2]): 83.9 nM
–	–	–	–	–	> 10000	> 10000	1150	1.8	25.1	O=C(CCCOc1ccc(S(=O)(=O)C2(C(=O)NO)CCOCC2)cc1)c1cccc(-c2ccccc2)c1 [Example 353]	–
> 10000	> 10000	532	2.9	8.7	–	–	–	–	–	CC1CC(C)CN(S(=O)(=O)CCCOc2ccc(S(=O)(=O)C3(C(=O)NO)CCOCC3)cc2)C1 (stereo not drawn) [Example 271]	–
> 10000	> 10000	1130	0.4	85.8	–	–	–	–	–	COCCN1CCC(C(=O)NO)(S(=O)(=O)c2ccc(OCCCn3nnc(-c4ccc(C(F)(F)F)cc4)n3)cc2)CC1 [Example 103]	–
–	–	–	–	–	2880	> 10000	866	5.1	16.4	O=C(NO)C1(S(=O)(=O)c2ccc(OCCCCN3CCc4ccccc4C3)cc2)CCOCC1 [Example 334]	–
